Experimental data: PMC9889419 (Pharmacological Reports, 2022)
Structures can show the parent of a compound that is named as a salt. Marks after values point to notes of the source that are not given here.

Key:
CYP2D6 = molecular target: T1, CYP2D6 (Homo sapiens, UniProt P10635); experiment: Human cytochrome P450 inhibition (human liver microsomes); assay type: in vitro ADME
T1 construct: from tissue; host or cells: human liver microsomes
Description: (§1) The selective reactions utilized for each enzyme were as follows: CYP1A2—phenacetin deethylation, CYP2A6—coumarin 7-hydroxylation, CYP2B6—7-ethoxy-4-trifluoromethyl coumarin O-deethylation, CYP2C9—diclofenac 4-hydroxylation, CYP2C19—S-mephenytoin 4-hydroxylation, CYP2D6—bufuralol 1’-hydroxylation, CYP2E1—chlorzoxazone 6-hydroxylation, CYP3A4—testosterone 6β-hydroxylation. For inhibitory evaluation, human liver microsomes and the tested compound (added in methanol as a solvent) were incubated under aerobic conditions with cytochrome P450 isozyme-selective substrates and excess NADPH at 37 °C. Incubations were for time periods over which the reaction in the absence of the compound, were determined to be linear, and proportional to the protein concentration. The human liver microsomes used were selected from the bank of those commercially available to be especially rich in the amount of the cytochrome P450 isozyme under investigation. However, it is important to note that the microsomes contained all the other isozymes in addition, and if reaction/substrate was less than specific, the other isozymes may have contributed to a minor extent to the enzyme activity determined. Following incubation, the reaction was terminated, an internal standard added, the metabolic products extracted and separated by reverse phase HPLC. Each assay was performed in duplicate, and the mean value calculated. The HPLC elutions were monitored by UV absorbance for all CYP reactions except those for CYP2A6, CYP2B6 and CYP2D6 where fluorescence monitoring was employed. Quantification was by comparison with authentic metabolites.

CYP1A2 = molecular target: T2, CYP1A2 (Homo sapiens, UniProt P05177); experiment: as above; assay type: in vitro ADME
T2 construct: tissue celsis F008085-CST; host or cells: human liver microsomes
T2 sequence (P05177 1-516): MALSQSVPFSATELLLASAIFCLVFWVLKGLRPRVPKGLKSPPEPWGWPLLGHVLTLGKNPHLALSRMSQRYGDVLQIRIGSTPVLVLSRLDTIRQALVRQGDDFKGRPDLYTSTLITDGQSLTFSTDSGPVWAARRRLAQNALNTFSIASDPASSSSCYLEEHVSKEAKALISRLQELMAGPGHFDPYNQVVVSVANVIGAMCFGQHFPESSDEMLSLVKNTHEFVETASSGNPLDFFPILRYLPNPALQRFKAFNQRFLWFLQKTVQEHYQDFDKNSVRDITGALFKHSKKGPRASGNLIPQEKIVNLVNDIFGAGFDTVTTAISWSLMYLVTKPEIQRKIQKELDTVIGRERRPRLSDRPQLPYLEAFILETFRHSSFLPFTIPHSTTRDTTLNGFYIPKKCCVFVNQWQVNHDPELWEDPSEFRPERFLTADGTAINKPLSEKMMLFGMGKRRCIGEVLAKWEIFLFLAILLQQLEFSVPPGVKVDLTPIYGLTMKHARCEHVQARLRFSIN
Description: as §1

CYP2E1 = molecular target: T3, CYP2E1 (Homo sapiens, UniProt P05181); experiment: as above; assay type: in vitro ADME
T3 construct: The human liver microsomes used were selected from the bank of those commercially available; from tissue; host or cells: human liver microsomes
Description: as §1

CYP2A6 = molecular target: T4, CYP2A6 (Homo sapiens, UniProt P11509); experiment: as above; assay type: in vitro ADME
T4 construct: tissue celsis X008064-LSL; host or cells: human liver microsomes
T4 sequence (P11509 1-494): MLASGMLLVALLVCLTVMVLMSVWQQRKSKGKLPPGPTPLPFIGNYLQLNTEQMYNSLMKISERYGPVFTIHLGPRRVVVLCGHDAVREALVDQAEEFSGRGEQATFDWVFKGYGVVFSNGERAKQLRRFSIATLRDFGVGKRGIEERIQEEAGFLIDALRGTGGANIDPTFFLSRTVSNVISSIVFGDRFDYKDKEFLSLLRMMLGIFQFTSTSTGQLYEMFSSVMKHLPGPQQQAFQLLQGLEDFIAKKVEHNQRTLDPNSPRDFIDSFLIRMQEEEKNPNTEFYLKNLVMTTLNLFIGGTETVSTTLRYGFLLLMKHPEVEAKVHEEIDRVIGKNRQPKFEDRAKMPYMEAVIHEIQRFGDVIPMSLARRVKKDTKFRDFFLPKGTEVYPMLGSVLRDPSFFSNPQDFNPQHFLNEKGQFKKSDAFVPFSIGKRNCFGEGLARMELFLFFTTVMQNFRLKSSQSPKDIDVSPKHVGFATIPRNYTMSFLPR
Description: as §1

CYP2C19 = molecular target: T5, CYP2C19 (Homo sapiens, UniProt P33261); experiment: as above; assay type: in vitro ADME
T5 construct: tissue Puracyp #011; host or cells: human liver microsomes
Description: as §1

CYP2C9 = molecular target: T6, CYP2C9 (Homo sapiens, UniProt P11712); experiment: as above; assay type: in vitro ADME
T6 construct: from tissue; host or cells: human liver microsomes
Description: as §1

CYP2B6 = molecular target: T7, CYP2B6 (Homo sapiens, UniProt P20813); experiment: as above; assay type: in vitro ADME
T7 construct: tissue celsis M008085JTA; host or cells: human liver microsomes
Description: as §1

rats = assay type: in vivo; settings: ip
[1] = tested on: normotensive anaesthetized rats; experiment: Influence on blood pressure; assay type: in vivo; settings: 5 mg/kg iv, immediately after administration
Description: Influence on blood pressure in rats. Rats were anaesthetized with thiopental (75 mg/kg ip). The right carotid artery was cannulated with polyethylene tube filled with heparin in saline to facilitate pressure measurements using a Datamax apparatus (Columbus Instruments).

[2] = molecular target: T8, hNav1.8/beta3 sodium channel (Homo sapiens, UniProt Q9Y5Y9); experiment: Nav channel electrophysiology (IonWorks Quattro); assay type: cell-based
T8 construct: host or cells: CHO cells
T8 sequence (Q9Y5Y9 whole entry): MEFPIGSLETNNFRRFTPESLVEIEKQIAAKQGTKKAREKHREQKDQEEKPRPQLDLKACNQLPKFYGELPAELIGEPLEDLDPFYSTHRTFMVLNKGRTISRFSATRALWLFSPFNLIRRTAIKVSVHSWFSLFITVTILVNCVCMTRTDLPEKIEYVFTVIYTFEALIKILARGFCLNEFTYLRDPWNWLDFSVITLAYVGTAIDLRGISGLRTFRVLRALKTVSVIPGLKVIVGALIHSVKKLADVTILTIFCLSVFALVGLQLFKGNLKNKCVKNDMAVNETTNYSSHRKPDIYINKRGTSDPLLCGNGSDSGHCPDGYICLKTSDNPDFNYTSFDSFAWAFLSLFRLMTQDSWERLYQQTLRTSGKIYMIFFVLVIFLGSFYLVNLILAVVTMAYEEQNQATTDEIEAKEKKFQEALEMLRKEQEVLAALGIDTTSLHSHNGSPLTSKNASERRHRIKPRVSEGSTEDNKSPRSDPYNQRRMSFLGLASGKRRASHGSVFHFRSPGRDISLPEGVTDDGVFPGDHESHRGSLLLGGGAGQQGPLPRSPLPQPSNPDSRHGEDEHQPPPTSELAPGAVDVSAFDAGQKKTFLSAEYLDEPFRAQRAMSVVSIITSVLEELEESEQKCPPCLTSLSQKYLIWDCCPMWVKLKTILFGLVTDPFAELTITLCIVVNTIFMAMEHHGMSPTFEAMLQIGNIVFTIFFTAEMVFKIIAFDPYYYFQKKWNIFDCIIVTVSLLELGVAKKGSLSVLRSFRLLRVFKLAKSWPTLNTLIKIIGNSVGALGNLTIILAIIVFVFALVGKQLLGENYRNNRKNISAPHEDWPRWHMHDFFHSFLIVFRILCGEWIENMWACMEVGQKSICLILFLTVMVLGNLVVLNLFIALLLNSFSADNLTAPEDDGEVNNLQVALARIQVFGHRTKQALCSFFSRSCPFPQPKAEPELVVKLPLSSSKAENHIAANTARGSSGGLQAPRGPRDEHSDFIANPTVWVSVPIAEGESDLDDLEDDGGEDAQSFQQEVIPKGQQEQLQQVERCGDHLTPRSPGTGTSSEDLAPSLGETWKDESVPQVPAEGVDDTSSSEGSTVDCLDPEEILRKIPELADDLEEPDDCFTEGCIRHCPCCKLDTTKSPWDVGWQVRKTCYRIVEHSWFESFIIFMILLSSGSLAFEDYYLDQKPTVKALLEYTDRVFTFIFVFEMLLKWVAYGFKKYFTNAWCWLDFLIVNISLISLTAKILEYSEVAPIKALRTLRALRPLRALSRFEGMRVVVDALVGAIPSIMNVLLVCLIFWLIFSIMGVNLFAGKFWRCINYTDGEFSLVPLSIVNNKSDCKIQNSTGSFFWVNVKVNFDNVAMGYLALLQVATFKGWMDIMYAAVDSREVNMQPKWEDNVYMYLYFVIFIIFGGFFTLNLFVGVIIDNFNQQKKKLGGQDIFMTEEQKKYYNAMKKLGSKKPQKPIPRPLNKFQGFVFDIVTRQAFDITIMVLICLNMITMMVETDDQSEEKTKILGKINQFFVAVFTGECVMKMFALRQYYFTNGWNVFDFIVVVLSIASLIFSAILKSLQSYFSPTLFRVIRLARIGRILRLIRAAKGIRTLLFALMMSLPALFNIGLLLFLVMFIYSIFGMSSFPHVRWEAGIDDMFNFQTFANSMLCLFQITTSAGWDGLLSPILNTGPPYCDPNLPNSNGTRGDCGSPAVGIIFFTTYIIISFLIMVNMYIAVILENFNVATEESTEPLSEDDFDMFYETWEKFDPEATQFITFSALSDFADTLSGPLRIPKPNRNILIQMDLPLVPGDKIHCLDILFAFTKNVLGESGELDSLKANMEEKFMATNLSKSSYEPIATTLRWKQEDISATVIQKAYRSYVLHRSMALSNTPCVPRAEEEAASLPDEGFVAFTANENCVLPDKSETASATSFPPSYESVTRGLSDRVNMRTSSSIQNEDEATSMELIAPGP
T8 sequence (Q9NY72 25-215 partner limits assumed): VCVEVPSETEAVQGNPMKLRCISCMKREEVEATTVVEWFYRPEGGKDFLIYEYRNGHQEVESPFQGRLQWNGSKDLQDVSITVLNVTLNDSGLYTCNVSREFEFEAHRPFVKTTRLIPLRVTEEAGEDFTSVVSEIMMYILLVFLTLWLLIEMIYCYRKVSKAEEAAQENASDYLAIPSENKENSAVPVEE

guinea pigs = experiment: Corneal anesthesia; assay type: in vivo
Description: A. Corneal anesthesia. […] The corneal reflex was examined by irritation of right eye conjunctiva (studied eye) and a left eye conjunctiva (control eye) by horsehair. The strength of local anesthetic activity was determined from the moment of solution instillation to the moment of reflex return. The presence or lack of corneal reflex were assessed. The eye conjunctiva irritation was done 6 times (every 5 s) with the interval of 5 min during the first 30 min [31].

STZ-treated mice = experiment: Streptozotocin-induced diabetic neuropathy, von Frey test; assay type: in vivo; settings: for elevation of pain threshold (von Frey): STZ-treated mice
Description: Induction of diabetes. To induce diabetes the mice were injected with a single ip streptozotocin (STZ, Sigma-Aldrich, Germany) dose (200 mg/kg) dissolved in 0.1 N citrate buffer. Blood glucose levels were measured 1 h before and repeatedly 1, 2 and 3 weeks after STZ injection using a blood glucose monitoring system (AccuChek Active, Roche, France). Blood samples (5 µL) for the measurement of glucose concentration were obtained from the mouse tail vein. The animals were defined as diabetic when their blood glucose concentration exceeded 300 mg/dL and only those mice were used as diabetic mice in further tests. The body weight of mice was monitored 1 h before and 21 days after STZ injection.
Assessment of tactile allodynia in STZ-treated mice—von Frey test. Mechanical hyperalgesia was tested as previously described in detail [25] using the electronic von Frey device (Bioseb, France). Briefly, in a quiet room, mice were placed in test compartments on an elevated metal mesh grid and allowed to acclimate for 30 min. After a habituation period each mouse was tested 3 times in the plantar region of hind paw, to obtain baseline values. Subsequently, the mice were pre-treated with the tested compound dissolved in saline at doses 1, 10 and 30 mg/kg. Thirty minutes later the animals were tested again and mean values of mechanical withdrawal threshold were obtained for each mouse.

hNav1.2 sodium channel = molecular target: T9, hNav1.2 sodium channel (Homo sapiens, UniProt Q99250); experiment: Nav channel electrophysiology (IonWorks Quattro); assay type: cell-based
T9 construct: host or cells: CHO cells
T9 sequence (Q99250 whole entry): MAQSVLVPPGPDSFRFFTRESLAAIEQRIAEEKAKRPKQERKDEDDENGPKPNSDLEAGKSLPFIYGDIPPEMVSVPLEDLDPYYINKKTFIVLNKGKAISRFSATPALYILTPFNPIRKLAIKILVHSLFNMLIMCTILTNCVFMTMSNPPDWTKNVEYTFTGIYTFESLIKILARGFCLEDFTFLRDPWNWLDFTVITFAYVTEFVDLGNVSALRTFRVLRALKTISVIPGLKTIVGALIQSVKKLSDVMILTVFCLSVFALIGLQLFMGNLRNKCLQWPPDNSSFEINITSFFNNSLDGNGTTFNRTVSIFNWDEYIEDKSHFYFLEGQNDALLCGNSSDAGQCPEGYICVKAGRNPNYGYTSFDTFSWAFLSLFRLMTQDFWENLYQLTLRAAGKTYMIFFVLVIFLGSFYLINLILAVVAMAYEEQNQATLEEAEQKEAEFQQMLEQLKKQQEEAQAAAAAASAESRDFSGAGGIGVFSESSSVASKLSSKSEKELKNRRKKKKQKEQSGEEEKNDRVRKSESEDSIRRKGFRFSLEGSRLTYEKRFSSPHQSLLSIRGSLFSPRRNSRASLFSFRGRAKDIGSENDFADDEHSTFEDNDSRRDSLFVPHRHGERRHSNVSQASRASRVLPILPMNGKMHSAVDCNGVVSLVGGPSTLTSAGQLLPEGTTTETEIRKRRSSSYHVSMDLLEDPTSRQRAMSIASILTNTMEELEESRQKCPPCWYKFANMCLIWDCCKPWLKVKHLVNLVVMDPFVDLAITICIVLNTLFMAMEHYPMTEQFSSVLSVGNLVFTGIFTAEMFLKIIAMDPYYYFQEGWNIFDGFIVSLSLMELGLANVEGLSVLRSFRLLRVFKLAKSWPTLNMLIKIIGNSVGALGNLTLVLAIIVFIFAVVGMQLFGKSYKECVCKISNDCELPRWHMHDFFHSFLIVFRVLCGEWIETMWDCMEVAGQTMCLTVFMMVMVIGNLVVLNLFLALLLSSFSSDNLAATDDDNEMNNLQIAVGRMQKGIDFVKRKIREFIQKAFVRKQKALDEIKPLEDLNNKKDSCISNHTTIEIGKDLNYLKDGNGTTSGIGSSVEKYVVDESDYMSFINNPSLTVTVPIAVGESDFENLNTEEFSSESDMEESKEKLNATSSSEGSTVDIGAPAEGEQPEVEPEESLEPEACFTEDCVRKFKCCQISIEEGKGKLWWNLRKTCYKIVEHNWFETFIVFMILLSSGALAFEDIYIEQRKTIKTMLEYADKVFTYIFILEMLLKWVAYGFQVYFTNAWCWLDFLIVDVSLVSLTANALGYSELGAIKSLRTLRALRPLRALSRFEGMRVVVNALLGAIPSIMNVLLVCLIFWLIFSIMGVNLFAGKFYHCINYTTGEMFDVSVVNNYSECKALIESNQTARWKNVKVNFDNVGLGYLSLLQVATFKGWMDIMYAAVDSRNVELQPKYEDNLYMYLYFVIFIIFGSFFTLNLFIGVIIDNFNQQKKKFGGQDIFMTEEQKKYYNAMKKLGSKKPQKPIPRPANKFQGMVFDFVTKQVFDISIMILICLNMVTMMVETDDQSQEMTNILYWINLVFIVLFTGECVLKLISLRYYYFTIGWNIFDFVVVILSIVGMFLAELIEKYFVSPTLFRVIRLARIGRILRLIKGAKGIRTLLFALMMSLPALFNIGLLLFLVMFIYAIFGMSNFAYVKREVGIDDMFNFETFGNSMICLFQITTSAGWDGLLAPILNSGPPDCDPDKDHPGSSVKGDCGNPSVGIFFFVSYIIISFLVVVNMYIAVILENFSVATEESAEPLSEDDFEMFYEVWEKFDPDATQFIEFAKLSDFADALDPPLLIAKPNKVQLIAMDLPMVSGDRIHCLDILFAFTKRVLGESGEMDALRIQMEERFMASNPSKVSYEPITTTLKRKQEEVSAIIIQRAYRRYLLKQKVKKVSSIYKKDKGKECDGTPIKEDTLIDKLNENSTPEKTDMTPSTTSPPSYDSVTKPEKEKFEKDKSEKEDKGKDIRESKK

T1 sequence (P10635 whole entry): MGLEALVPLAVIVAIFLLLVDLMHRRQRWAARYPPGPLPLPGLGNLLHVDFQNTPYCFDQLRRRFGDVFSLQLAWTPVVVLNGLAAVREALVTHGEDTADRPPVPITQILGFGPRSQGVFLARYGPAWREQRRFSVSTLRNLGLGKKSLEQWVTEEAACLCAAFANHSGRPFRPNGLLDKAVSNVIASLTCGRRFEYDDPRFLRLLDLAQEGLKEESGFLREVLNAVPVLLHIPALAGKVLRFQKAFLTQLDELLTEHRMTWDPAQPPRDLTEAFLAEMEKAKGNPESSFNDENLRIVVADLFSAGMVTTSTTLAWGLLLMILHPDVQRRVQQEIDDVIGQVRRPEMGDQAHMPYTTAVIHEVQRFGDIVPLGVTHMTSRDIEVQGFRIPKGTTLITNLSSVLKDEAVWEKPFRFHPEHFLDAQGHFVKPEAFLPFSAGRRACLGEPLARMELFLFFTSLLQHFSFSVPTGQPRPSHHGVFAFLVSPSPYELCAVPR

## CCC(CO)NCCOc1c(C)cccc1Cl (centres unmarked) [Compound 4, R,S-2-((2-(2-chloro-6-methylphenoxy)ethyl)amino)butan-1-ol]
CYP2D6
  Inhibition type: Mixed/competitive
  Ki: 1.4 µM
CYP2D6; 500 µM, substrate at 100.0 µM
  % inhibition of 500 µM concentration: 100 (substrate at 100.0 µM) %
CYP1A2
  Inhibition type: Mixed/competitive
  Ki: 23 µM
CYP1A2; 500 µM, substrate at 2 µM
  % inhibition of 500 µM concentration: 65 (substrate at 2 µM) %
CYP2E1
  Inhibition type: Slight inhibition
CYP2E1; 500 µM, substrate at 500.0 µM
  % inhibition of 500 µM concentration: 17 (substrate at 500.0 µM) %
CYP2A6
  Inhibition type: Mixed/competitive
  Ki: 371 µM
CYP2A6; 500 µM, substrate at 10 µM
  % inhibition of 500 µM concentration: 44 (substrate at 10 µM) %
CYP2C19
  Inhibition type: Mixed/competitive
  Ki: 54 µM
CYP2C19; 500 µM, substrate at […]
  % inhibition of 500 µM concentration: 80 (substrate at 150.0 µM) %
CYP2C9
  Inhibition type: Slight inhibition
CYP2C9; 500 µM, substrate at 400 µM
  % inhibition of 500 µM concentration: 19 (substrate at 400 µM) %
CYP2B6
  Inhibition type: Weak inhibition
CYP2B6; 500 µM, substrate at 25 µM
  % inhibition of 500 µM concentration: 69 (substrate at 25 µM) %
rats
  TD97: 40.53 mg/kg
rats; at 40 mg/kg
  Pilocarpine-induced status epilepticus prevention: result: no activity

## CCC(CO)NCCOc1c(C)cccc1Cl (centres unmarked) [KM-408, R,S-2-((2-(2-chloro-6-methylphenoxy)ethyl)amino)butan-1-ol hydrochloride]
[1]
  lowering of diastolic blood pressure: approximately 21 mmHg
  lowering of systolic blood pressure: approximately 21 mmHg
[2]; 10 Hz
  IC50: 15.2 µM
[2]; Inactivated state
  IC50: < 10 µM
[2]; Tonic block
  IC50: 44.1 µM
Guinea pigs; 0.5%, 5 min
  Inhibition of pain reaction: 94.4*** %
Guinea pigs; 0.5%, 30 min
  Inhibition of pain reaction: 8.3%
Guinea pigs; […], 5 min
  Inhibition of pain reaction: 80.5*** %
Guinea pigs; guinea pigs
  corneal anesthesia: active at: 0.125%
STZ-treated mice; 1 mg/kg
  elevation of pain threshold (von Frey): 132%
STZ-treated mice; 10 mg/kg
  elevation of pain threshold (von Frey): 125%
STZ-treated mice; mice, ip
  STZ-induced pain (von Frey): active at: 1 mg/kg
hNav1.2 sodium channel; 10 Hz
  IC50: 15.6 µM
hNav1.2 sodium channel; Inactivated state
  IC50: < 10 µM
hNav1.2 sodium channel; Tonic block
  IC50: 48.7 µM
